Laboratory results published in US20140045809A1, “CORROLES FOR NEUROPROTECTION AND NEURORESCUE” (priority 2008, published 2014).
Where two headings read alike, the source gives them in different places.

Key:
[1] = test system: nigral dopaminergic neurons; conditions: MPTP model, also given post-MPTP; Gal et al., 2005; cited from earlier work
MAO-A = molecular target: T1, MAO-A (Mus musculus, UniProt Q64133); conditions: Gal et al., 2005, cited from earlier work
T1 construct: host or cells: brain and peripheral organs of treated animals
T1 sequence (Q64133 1-526): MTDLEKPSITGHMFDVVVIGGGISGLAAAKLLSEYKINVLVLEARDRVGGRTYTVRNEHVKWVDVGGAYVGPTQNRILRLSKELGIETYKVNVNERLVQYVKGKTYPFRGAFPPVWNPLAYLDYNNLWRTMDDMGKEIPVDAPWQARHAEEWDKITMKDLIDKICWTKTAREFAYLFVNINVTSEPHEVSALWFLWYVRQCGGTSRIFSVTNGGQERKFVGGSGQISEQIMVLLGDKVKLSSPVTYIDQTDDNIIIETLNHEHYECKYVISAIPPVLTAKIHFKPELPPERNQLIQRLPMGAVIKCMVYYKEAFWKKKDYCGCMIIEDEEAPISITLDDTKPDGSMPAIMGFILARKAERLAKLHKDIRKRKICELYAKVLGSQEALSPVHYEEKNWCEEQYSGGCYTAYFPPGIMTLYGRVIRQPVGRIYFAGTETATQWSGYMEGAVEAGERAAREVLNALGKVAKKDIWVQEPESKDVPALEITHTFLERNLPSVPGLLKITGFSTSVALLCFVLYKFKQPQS

MAO-B = molecular target: T2, MAO-B (Mus musculus, UniProt Q8BW75); conditions: Gal et al., 2005, cited from earlier work
T2 construct: host or cells: brain and peripheral organs of treated animals
T2 sequence (Q8BW75 1-520): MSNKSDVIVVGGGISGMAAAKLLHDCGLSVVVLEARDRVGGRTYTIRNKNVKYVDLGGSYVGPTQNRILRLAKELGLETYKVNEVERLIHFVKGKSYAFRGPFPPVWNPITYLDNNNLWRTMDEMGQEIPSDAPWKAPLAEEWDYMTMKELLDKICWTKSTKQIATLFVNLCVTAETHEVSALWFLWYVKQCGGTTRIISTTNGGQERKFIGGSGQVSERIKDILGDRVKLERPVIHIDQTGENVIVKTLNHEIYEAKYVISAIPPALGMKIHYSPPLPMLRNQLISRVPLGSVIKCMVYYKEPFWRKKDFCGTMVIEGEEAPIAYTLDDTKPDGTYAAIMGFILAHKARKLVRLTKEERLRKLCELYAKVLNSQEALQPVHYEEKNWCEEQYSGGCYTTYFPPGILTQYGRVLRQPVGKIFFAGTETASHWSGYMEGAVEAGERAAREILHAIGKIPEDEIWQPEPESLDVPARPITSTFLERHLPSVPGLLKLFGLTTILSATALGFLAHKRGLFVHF

RIN-m cells [2] = experiment: Protection of RIN-m beta cells against H2O2 toxicity (MTT); type: cell-based, rat; conditions: 20 μM, 30 min before 35 μM H2O2, 24 h
Protocol: Two insulin-secreting beta cell lines, rat insulinoma (INS-1E) and RIN-m cells, were used to examine the protective effect of corrole 1C-Fe. The cells were cultured at 37° C., in a humid 5% CO2, 95% air environment in regular RPMI-1640 medium (Invitrogen) supplemented with 5% fetal calf serum (FCS).
After 2 days of culture, RIN-m cells (5×10^4 cells/well in 96-well plates) were treated with corrole 1C-Fe (1-50 μM) before addition of 35 μM of H2O2. Cell viability was evaluated by a colorimetric assay for mitochondrial function estimation using the MTT test as previously described (Gassen et al., 1998) and expressed as percentage of control.
RIN-m cells were grown as described in Example 5. After 3 days of culture, RIN-m cells (2.5×10^4 cells/well in 96-well plates) were treated with corroles 1C-Fe or 5C-Fe or porphyrin 1P-Fe (1 and 20 μM), added 30 min prior to treatment with 35 μM H2O2 and further incubated for 24 h. Cell injury was evaluated by MTT test. […] […].
Protective effect of iron(III) corrole complexes against H2O2-induced toxicity (150 μM) was compared to that of manganese(III) corroles and related porphyrin. […].

INS-1E cells = experiment: Protection of INS-1E cells against SIN-1 toxicity (MTT); type: cell-based, rat; conditions: 10 μM, 30 min before SIN-1 (500 or 600 μM), 24 h
Protocol: (§1) INS-1E cells or RIN-m cells were cultured in RPMI with low serum content (2% FCS), placed in microtiter plates (96 wells) at a density of 2.5×10^4 cells/well and allowed to attach for 24 h before treatment. Corroles 1C-Fe and 5C-Fe (10 μM) were added 30 min prior to insult with the nitric oxide donor SIN-1 (500 or 600 μM) for a subsequent 24 h period. Cell viability was evaluated by a colorimetric assay for mitochondrial function using 3-(4,5-dimethylthiazol-2-yl)-2,5-diphenyltetrazolium bromide (MTT test), and expressed as percentage of untreated control. Values higher than 100% reflect increased mitochondrial activity induced by the drug. The results represent the mean±SEM of three independent experiments performed under the same conditions.

RIN-m cells [3] = experiment: Protection of RIN-m cells against SIN-1 toxicity (MTT); type: cell-based, rat; conditions: 10 μM, 30 min before SIN-1 (500 or 600 μM), 24 h
Protocol: as §1
Insulin-secreting RIN-m cells were incubated in RPMI with low serum content (2% FCS) and placed in microtiter plates (96 wells) at a density of 2.5×10^4 cells/well and allowed to attach for 24 h before treatment. Cells were treated with corroles 1C-Fe, 1C-Mn or 2C-Mn or porphyrins 1P-Fe or 2P-Mn, in various concentrations (0.1-20 μM), for 30 min prior to insult with SIN-1 (800 μM) for a subsequent 24 h period. Cell viability was evaluated by MTT test and expressed as percentage of untreated control.

SH-SY5Y cells [4] = type: cell-based
Protocol: Human neuroblastoma cell line was also examined under conditions similar to RIN-m cells to reveal the corrole's ability to prevent neuronal death caused by oxidative stress. SH-SY5Y cells were plated in microtiter plates (96 wells) in DMEM-Eagle/F-12(HAM) (1:1), containing 10% FCS. To examine neuroprotective effect, SH-SY5Y cells were treated for 30 min with corroles 1C-Fe and 5C-Fe (20 and 50 μM) before addition of 20 μM H2O2 for 24 h. To examine neurorescue, SH-SY5Y cells were first exposed to 20 μM H2O2 for 0.5 h, 1.5 h or 3 h, followed by the addition of corroles 1C-Fe and 5C-Fe (20 μM) and incubation for 24 h.
Compounds 1C-Fe and 1P-Fe (1-50 μM) were added 30 min before insult with H2O2 (200 μM), followed by a subsequent 24 h period. The neuroprotective effects of the iron corrole 1C-Fe and its structurally analogous iron porphyrin 1P-Fe, against H2O2-induced neurotoxicity were investigated using MTT reduction assay and cell death ELISA, based on the use of mouse monoclonal antibodies to detect free histones and fragmented DNA (F. Hollderieder et al, Biochemica 2002, 1, 25). […] In light of the observed neuroprotective effect of corrole 1C-Fe, we attempted to determine the length of the delay between H2O2 exposure and corrole 1C-Fe treatment that would still afford neuroprotection. H2O2 was administered to SH-SY5Y cells and corrole 1C-Fe was then added for 0.5-1.5 h thereafter. […]

SH-SY5Y cells [5] = experiment: Neuroprotection/neurorescue against SIN-1-induced cell death in SH-SY5Y cells; type: cell-based, human; conditions: 24 h (Example 11)
Protocol: SH-SY5Y cells were cultured in DMEM-Eagle/F-12(HAM) (1:1) containing 10% FCS. Cells were resuspended in medium containing 2% FCS, seeded in microtiter plates (96 wells) and allowed to attach for 24 h before initiation of treatment. […]

SH-SY5Y cells [6] = type: cell-based; conditions: 24 h
Protocol: SH-SY5Y cells were cultured in DMEM-Eagle/F-12(HAM) (1:1) containing 10% FCS. Cells were resuspended in medium containing 2% FCS, seeded in microtiter plates (96 wells) and allowed to attach for 24 h. To examine the neuroprotective effect, cells were pretreated for 30 min with corroles 1C-Fe and 5C-Fe (1-20 μM), and were then exposed to 6-OHDA (60 μM) for further 24 h. For neurorescue assessment, SH-SY5Y cells were first treated with 6-OHDA (60 μM) for 0.5 h, 1.5 h, 3 h and 6 h followed by the addition of compounds 1C-Fe and 5C-Fe (10 μM) for further 24 h.
SH-SY5Y cells were pretreated with or without corroles 1C-Fe, 2C-Mn and 3C-Mn and porphyrins 1P-Fe and 2P-Mn (20 μM), 30 min before exposure to 6-OHDA (40 μM) for a subsequent 24 h period. Cell viability was evaluated by MTT test and cell death was assessed using the apoptotic cell death detection ELISA kit. For neurorescue, SH-SY5Y cells were first exposed to 40 μM 6-OHDA for 0.5. 1, 1.5 and 3 h, followed by the addition of the compounds 1C-Fe, 2C-Mn and 3C-Mn (20 μM) and incubated for further 24 h. Growth-associated protein (GAP-43) was detected by fluorescence microscopy using a specific primary antibody. Apoptotic nuclei were determined by terminal deoxynucleotidyl transferase-mediated UTP-digoxigenin nick end labeling analysis. 4′,6-Diamidino-2-phenylnidole (DAPI) staining was applied for nuclear labeling. […]

NSC-34 G93A cells = experiment: Cell culture model of familial ALS, NSC-34 cells expressing mutant G93A-SOD1; type: cell-based, mouse; conditions: 48 h induction; even at a concentration as low as 0.5 μM
Protocol: Mutant-superoxide dismutase (G93A-SOD1) is associated with familial amyotrophic lateral sclerosis (FALS). A cell culture model of FALS was implemented by stably transfecting mouse motoneuronal NSC-34 cells or SH-SY5Y cells, to express mutant G93A-SOD1 at levels approximating those seen in the human disease. NSC-34 cells or SH-SY5Y cells were incubated in Dulbecco's modified Eagle's/F-12 medium supplemented with 10% FCS tetracycline-free (FCS Tet-free; Clontech), at 37° C. in an atmosphere of 5% CO2 in air. These cell lines are stably transfected with the pTet-ON plasmid (Clontech, Palo Alto, Calif.) coding for the reverse tetracycline controlled transactivator (rtTA). Induction of mutant SOD1 expression was obtained by shifting nonconfluent cultures into growth medium containing 1% N2 supplement (Invitrogen, Carlsbad, Calif.) and […] doxocyclin for 48 h in the presence or absence of corrole 1C-Fe and 5C-Fe.

Row | SMILES | neuroprotection and restoration of nigral dopaminergic neurons [1] | MAO-A inhibition (MAO-A; in peripheral organs) | MAO-A inhibition (MAO-A; in the brain) | MAO-B inhibition (MAO-B; in peripheral organs) | MAO-B inhibition (MAO-B; in the brain) | protective effect against H2O2 toxicity relative to porphyrin 1P-Fe (MTT) (RIN-m cells [2]) | protective effect against SIN-1 induced toxicity (MTT) (INS-1E cells) | protective effect against SIN-1 induced toxicity (MTT) (RIN-m cells [3]) | neurorescue after H2O2 insult (SH-SY5Y cells [4]; 20 μM H2O2 for 0.5, 1.5 or 3 h, then 20 μM corrole, 24 h) | neuroprotective effect against H2O2-induced toxicity (SH-SY5Y cells [4]; 20 and 50 μM, 30 min before 20 μM H2O2, 24 h) | neurorescue after SIN-1 insult (SH-SY5Y cells [5]; 20 μM added 0.5, 1.5 or 3 h after insult) | neuroprotective effect against SIN-1 induced toxicity (SH-SY5Y cells [5]; 10 and 20 μM, 30 min pretreatment) | neuroprotective effect against 6-OHDA-induced toxicity (SH-SY5Y cells [6]; 1-20 μM, 30 min before 6-OHDA (60 μM)) | neurorescue after 6-OHDA insult (SH-SY5Y cells [6]; 6-OHDA (60 μM) for 0.5, 1.5, 3 and 6 h, then 10 μM) | cell viability of induced mutant cells (NSC-34 G93A cells)
1 | C#CCN[C@@H]1CCc2ccccc21 [rasagiline] | neuroprotective and also have the ability to restore nigral dopaminergic neurons when given post-MPTP | – | – | – | – | – | – | – | – | – | – | – | – | – | –
2 | C#CCN(C)Cc1ccc(O)c2ncccc12 [M-30] | neuroprotective and also have the ability to restore nigral dopaminergic neurons when given post-MPTP | poorly | potently inhibits | poorly | potently inhibits | – | – | – | – | – | – | – | – | – | –
3 | O=C(O)CNS(=O)(=O)c1cc2[n]3c1C(c1c(F)c(F)c(F)c(F)c1F)=C1C=CC4=[N+]1[Fe-]31[n]3c(cc(S(=O)(=O)NCC(=O)O)c3-2)C(c2c(F)c(F)c(F)c(F)c2F)=c2ccc([n]21)=C4c1c(F)c(F)c(F)c(F)c1F (stereo not shown) [5C-Fe, 2,17-bis(N-sulfonylglycine)-5,10,15-tris(pentafluoro-phenyl)-corrolato iron(III)] | – | – | – | – | – | exhibit a greater protective effect | marked protective effect | marked protective effect | instigated neurorescue | dose-dependent neuroprotective effect | instigated neurorescue | dose-dependent neuroprotective effect | dose-dependent neuroprotective effect | instigated neurorescue | significantly improved cell viability
